Key:
[1] = system: isolated rat islets of Langerhans; conditions: cited from earlier work
β-cells [2] = experiment: Dynamics of insulin release from column perifused β-cells; format: cell-based, ob/ob mice; conditions: for basal level of insulin secretion: 5 μM nocodazole (30 min) or 25 μM Taxol (15 min and throughout); for increase in insulin secretion: 1 μM glibenclamide in the presence of 5 μM nocodazole
Method: (§1) Staining of microtubules with an antibody against tubulin in β-cells pretreated with vehicle, nocodazole or taxol (a). Data are representative of three determinations. Effect of nocodazole (b) and taxol (c) on the dynamics of insulin release from column perifused β-cells. Cells were incubated with 5 μM nocodazole for 30 min or 25 μM taxol for 15 min prior to starting perifusion of the cells. Taxol was present during the whole experiment. The control cells were incubated with their respective vehicle solutions. Protocols were initiated at the times indicated in the figure with either 1 μM glibenclamide or 15 mM glucose. The data represents the mean+SEM of four experiments.
(§2) Ob/ob mice were obtained from a locally bread colony at the animal facility within the Karolinska Institute, Stockholm, Sweden. The ob/ob mice were starved overnight. The animals were decapitated, the pancreas was excised from the abdominal cavity and pancreatic β-cells were isolated after collagenase digestion as previously described (Lemmark, A, (1974) Diabetologica 10, 431-438; Nilsson, T. et al. (1987) Biochem. J. 248, 329-336). The cells were kept overnight in RPMI 1640 medium supplemented with 11 mM glucose, 10% FCS, 100 μg/ml streptomycin and 100 IU/ml penicillin at 37° C. in a humidified atmosphere of 5% CO2 in air.
The basal medium used for isolation and for conducting the experiments was a buffer containing 125 mM NaCl; 5.9 mM KCl; 1.3 mM CaCl2; 1.2 mM MgCl2; and 25 mM HEPES (pH 7.4). BSA was added to the medium at the concentration of 1 mg/ml. The dynamics of insulin release were studied by perifusing β-cell aggregates mixed with Bio-Gel P4 polyacrylamide beads (BioRad, Richmond, Calif.), in a 0.5 ml column at 37° C. (Kanatsuna, T. et al. (1981) Diabetes 30, 231-234). The flow rate was 0.2 ml/min. Two-min fractions were collected and insulin content was analyzed by radioimmunoassay.
(§3) Cells were incubated with 5 μM nocodazole for 30 min or 25 μM taxol for 15 min prior to starting perifusion of the cells. Taxol was present during the whole experiment. The control cells were incubated with their respective vehicle solutions. Protocols were initiated at the times indicated in FIG. 3 with either 1 μM glibenclamide or 15 mM glucose. The data represent the mean±SEM of four experiments.

β-cells [3] = experiment: Staining of microtubules with an antibody against tubulin in pretreated β-cells; format: cell-based, ob/ob mice; conditions: 5 μM nocodazole or 25 μM Taxol
Method: as §1, §3

pancreatic β-cells = experiment: Binding of [125I]glibenclamide to intact β-cells and subcellular fractions, UV cross-linking, SDS-PAGE, autoradiography; set-up: species or system ob/ob mice
Source text: as §2
Binding of [^125I]glibenclamide (Amersham, UK) was performed in intact β-cells and in subcellular fraction derived therefrom. Isolated pancreatic islets from ob/ob mice (250-300) were homogenized in 300 μl buffer containing (in mM): HEPES 20, MgCl2 1, EGTA 1, EDTA 1, PMSF 1, protease inhibitors (leupeptin, aprotinin, pepstatin, antipain) 0.5 μg/ml in Eppendorf tubes using a motor pestle homogenizer. The homogenized material was centrifuged (800×g for 10 min) and the resultant pellet was resuspended again in 200 μl of homogenization buffer and centrifuged as above. […] This material was further analyzed by SDS-PAGE separation and autoradiography (FIG. 1b). […]

β-tubulin = experiment: Confocal microscopy co-localization of BODIPY FL glibenclamide and anti β-tubulin antibody in β-cells; format: cell-based, ob/ob mice; conditions: primary cultures of β-cells, BODIPY FL glibenclamide staining
Method: Further analysis of sulfonylureas binding to β-tubulin was performed using confocal microscopy in primary cultures of β-cells obtained from ob/ob mice. Isolated β-cells in culture were incubated in the presence or absence of different agonists for 3 min at 23° C. The incubation time was terminated by fixation of the cells with 4% formaldehyde in PBS for 10 min at room temperature. After rinsing twice with PBS, cells were incubated in acetone at −20° C. for 5 min and then quenched with PBS containing 1% BSA for 30 min. BODIPY® FL glibenclamide was purchased from Molecular Probes, Inc., Catalog Number B-7439; http://www.probes.com). The green-fluorescent BODIPY® FL fluorophore has excitation/emission maxima ˜503/512 nm. Staining with BODIPY® FL glibenclamide, primary anti β-tubulin antibody (Amersham, UK) and secondary Texas Red®-conjugated antibody (Molecular Probes Inc.) was performed at room temperature for 1 h. After rinsing with PBS the coverslips were mounted (SlowFade light, Molecular Probes, Eugene, Oreg.) and examined using a confocal laser scanning microscope (Leica TCS NT, Leica Lasertechnik GmbH, Heidelberg, Germany). Excitation wavelengths 488 nm and 568 nm were used. The confocal microscope was equipped with an Ar/Kr laser, a double dicroic mirror for rhodamine/fluorescein and a 63× lens (Leica PL APO 63×/1.32×0.6 oil). […]

[4] = system: Tubulin from bovine brain; experiment: Tubulin polymerization in vitro (optical density at 340 nm); format: biochemical; conditions: 0.17 mM glibenclamide, 2.9 mg/ml tubulin, versus DMSO control
Method: Glibenclamide accelerates microtubule growth. (a): Experimental data showing the increase in optical density at 340 nm, resulting from tubulin polymerization in vitro, as a function of time. Microtubule growth was induced by increasing the temperature from 15° C. (at t=0) to 35° C. The concentration of bovine brain tubulin was 2.9 mg/ml and the buffer solution contain 80 mM Pipes, 1 mM MgCl2, 1 mM EGTA, 1 mM GTP, 2.1% DMSO and 10% glycerol at pH 6.9. The black symbols indicate the presence of 0.17 mM glibenclamide whereas the gray symbols represent the controls in its absence. The polymerization was followed simultaneously for one pair at the time, with each pair being a glibenclamide sample and a control, to ensure comparisons are made on identical protein samples. The data presented is representative of four experiments. (b): The rate of tubulin polymerization as measured by the change in OD with time (dOD/dt) as a function of time. The experimental conditions were the same as in (a). Black lines indicate the presence of glibenclamide and gray lines its absence. […]
Tubulin from bovine brain was purchased from Cytoskeleton Inc. in aliquots of 1 mg lyophilized protein. […] The experiment was then started by altering the multicell holder set temperature to 35° C. and the absorbance at 340 nm was measured as a function of time. […]

| SMILES | effect on glucose-stimulated insulin secretion [1] | basal level of insulin secretion (β-cells [2]) | effect on increase in insulin secretion elicited by 1 μM glibenclamide (β-cells [2]; 25 μM Taxol, 3 mM and 15 mM glucose) | changes in microtubule organization (β-cells [3]) | proteins associated with binding, cytosolic fraction (pancreatic β-cells) | co-localization with β-tubulin (β-tubulin) | rate of change in absorbance (rate of tubulin polymerization) ([4]; 15° C. to 35° C.) | extent of tubulin polymerization [4] | increase in insulin secretion (β-cells [2]; 3 mM glucose) | increase in insulin secretion (β-cells [2]; 15 mM glucose) |
| --- | --- | --- | --- | --- | --- | --- | --- | --- | --- | --- |
| CC(=O)O[C@H]1C(=O)[C@@]2(C)[C@H]([C@H](OC(=O)c3ccccc3)[C@]3(O)C[C@H](OC(=O)[C@H](O)[C@@H](NC(=O)c4ccccc4)c4ccccc4)C(C)=C1C3(C)C)[C@]1(OC(C)=O)CO[C@@H]1C[C@@H]2O [Taxol] | inhibit | did not affect | prevented the increase | nor did they induce visible changes | – | – | – | – | – | – |
| COc1ccc(Cl)cc1C(=O)NCCc1ccc(S(=O)(=O)NC(=O)NC2CCCCC2)cc1 [glibenclamide, 5-Chloro-N-[2-[4-[[[(cyclohexylamino)carbonyl]amino]sulfonyl]phenyl]ethyl]-2-methoxybenzamide] | – | – | – | – | associated with two proteins having a molecular mass of approximately 47 and 65 kDa | indicated an interaction between glibenclamide and β-tubulin | faster | not a strong influence | 5 fold | one-fold increase |
| COC(=O)Nc1nc2ccc(C(=O)c3cccs3)cc2[nH]1 [nocodazole] | inhibit | did not affect | – | nor did they induce visible changes | – | – | – | – | – | – |

Source: US6586188B1, “Method for identification of compounds that bind to β-tubulin and stimulate insulin secretion” (Biovitrum AB, priority 1999, dated 2003)
